The source of these data is paper PMC8012336, “An automated and high-throughput-screening compatible pluripotent stem cell-based test platform for developmental and reproductive toxicity assessment of small molecule compounds” (Cell Biology and Toxicology, 2020).

Series [1] is described as follows: Manual human EST cytotoxicity assay, MTT, 5 d. To be noted: human. The method, then:
(§1) The cytotoxicity assessment with a reduced assay time of 5 days combined with either NADH- or ATP-based detection was also carried out with human induced pluripotent stem cells (hiPSCs). […] Furthermore, differences in the cytotoxicity effects between the hiPSCs and HDFfs were more pronounced than in the mouse cells. Similar to the cytotoxicity-based assay the overall variance in the data is reduced when viability data was obtained by an ATP-based read-out.
(§2) The MTT cell viability assay was performed as described (Seiler and Spielmann [2011]) with modifications. In brief, 96-well cell culture plates were coated with gelatin (0.1%) before plating mESC-D3. All peripheral wells of the assay plate were filled with 200 μl growth media (“blank”). Afterward, NIH/3T3 and mESC-D3 were plated in growth media (1 × 10^4 cells/ml, 50 μl/well). […] Vehicle (PBS) and positive control (5-fluorouracil) wells were also included on all assay plates. Three and 5 days after seeding the cell supernatant was replaced by freshly prepared compound solution (200 μl/well). Seven days after seeding the cell viability was detected. Therefore, the cell supernatant was aspirated from all wells, MTT solution (5 mg/ml) was added (20 μl/well) and the assay plate was incubated for 2 h at 37 °C and 5% CO2 in a humidified atmosphere. Afterward, all liquid was removed from the wells and MTT desorb solution (0.7% SDS in 2-propanol (Carl Roth, Cat. No. 9866.5), pre-warmed to 37 °C) was dispensed (130 μl/well). The assay plate was placed on a shaker for 15 min. Remaining precipitates were suspended by pipetting up and down with a multichannel pipette before measuring the absorption at 570 nm on a microtiter plate reader using 630 nm as a reference wavelength.
(§3) Figure S1: Step-wise evolution of the cytotoxicity assay towards the use of human cell lines. Related to Figure 2. Cytotoxicity assays were carried out with two compound sets on hiPSC line ZIPi013-E and HDFf, from which they were derived. […] A) 5 day MTT assay and manual handling. B) As in A), but using CellTiter-Glo® viability assay. All points in the graph represent the mean of 6 individual data points, including the standard error.

A short description of series [2]: Manual human EST cytotoxicity assay, CellTiter-Glo, 5 d. The note with it: human. The method, then:
as §1
(§4) 96-well cell culture plates were coated with gelatin (0.1%) before plating mESC-D3. All peripheral wells of the assay plate were filled with 200 μl growth media. In order to assess compound toxicity on mESC-D3 and NIH/3T3 cells, cell suspensions of NIH/3T3, and mESC-D3 were prepared in growth media (1 × 10^4 cells/ml) and were transferred to all remaining wells (50 μl/well). A 7-point dilution series in growth media was prepared for each test compound and was transferred to the assay plate 2 h after cell seeding (150 μl/well). Afterward, the cells were incubated in a humidified atmosphere at 37 °C and 5% CO2. Three and 5 days after seeding the cell supernatant was replaced by freshly prepared compound solution (200 μl/well). Seven days after seeding the assay plate was taken out of the incubator and located at room temperature for 10 min, before cell supernatant was aspirated (80 μl/well) and CellTiter-Glo® reagent was dispensed (50 μl/well). The assay plate was placed on a shaker for 1 min and after another 10 min incubation at room temperature in the dark the luminescence signal was detected on a plate reader.
as §3
(ATP-based viability assays read luminescence as a measure of living cells.)

Series [3] is described as follows: Manual MTT cell viability assay, 7 d. It is filed as cell-based, mouse. The note with it: mouse, manual, in brackets the two individual experiments. The method, then: as §2
(§5) Toxicity data from the MTT and CellTiter-Glo Assay was normalized against the vehicle control (100% viability) and plotted against the logarithmic compound concentration.
(Tetrazolium dyes change colour on reduction, which living cells bring about.)

A further series deals with NIH/3T3. The arrangement: method as in Scholz et al. [1999]. To be noted: ZEBET value, 7 d result; ref Scholz et al. [1999]; cited from earlier work.
The subject of series [4] is mESC-D3. Set-up: method as in Scholz et al. [1999]. To be noted: ZEBET value printed beside hanging drop differentiation result; ref Scholz et al. [1999]; cited from earlier work.
Series [5] concerns mESC-D3. Description: Conventional mouse ES-D3 differentiation assay in hanging drop format (petri dish; cardiomyocyte contraction, day 10). It is filed as cell-based. The note with it: manual; beating cardiomyocytes at day 10; in brackets the two individual experiments. The method, then:
Separate Petri dishes were used for each concentration of test compound, untreated control, and solvent control. […] The EB suspension was incubated for 2 days. On day five of the assay, a fresh compound dilution series was prepared in media and transferred into 24-well cell culture plates (1 ml/well, Greiner bio-one, Cat. No. 662641). A separate 24-well plate was used for each compound concentration, untreated control, and solvent control (24 wells per condition). One EB was transferred from the Petri dish into each well of the 24-well plate. After further 5 days of incubation (= day 10 of the assay), cardiomyocyte contraction was determined in each well under the light microscope.

Series [6] in a line: Automated CellTiter-Glo luminescent cell viability (cytotoxicity) assay, 5 d. The note with it: mouse. The method, then: The CellTiter-Glo® luminescent cell viability assay (Promega, Cat. No. G7573) was automated in 96-well format on the lab automation platform Fluent® (Tecan, Männedorf, Switzerland). The procedure allowed the testing of six compounds in mESC-D3 and NIH/3T3 cells in parallel. On the first day, PBS was dispensed into the peripheral wells of the assay plates (200 μl/well) using the Multiple Channel Arm (MCA). Mouse ES-D3 and NIH/3T3 cells were plated (50 μl/well, 1 × 10^4 cells/ml)) using the Flexible Channel Arm (FCA) and transported into the Cytomat™ 10 (Thermo Fisher Scientific) for incubation using the Robotic Gripper Arm (RGA). A 7-point dilution series of the test compounds and control solutions were prepared in PBS or DMSO (Carl Roth, Cat. No. HN47.1) under the laminar flow, transferred to a 96-well 0.5-ml Masterblock plate (Greiner bio-one, Cat. No. 786261) and placed on the worktable. On the Fluent the compounds were transferred to a 96-well 2-ml Masterblock plate (Greiner bio-one, Cat. No. 780271) and further diluted in growth media using the FCA. Two hours after cell plating compounds and controls were transferred to the assay plate with the FCA (150 μl/well) and transported back in the Cytomat 10. On day three of the assay, the media was exchanged using the MCA: old media was aspirated and dispensed into a 96-deep-well plate (“waste”), freshly prepared compound, and control solution was dispensed into the assay plate. After two more days of incubation, the cell viability was determined using the CellTiter-Glo assay. The assay plates were transported from the Cytomat 10 to the Carousel (Tecan) to adapt to room temperature. After 25 min the cell supernatant was removed partially (80 μl/well) and CellTiter-Glo reagent was dispensed (50 μl/well). The assay plate was placed on a shaker for 1 min and afterward incubated 25 min in the Carousel before the Luminescence signal was detected on the Infinite M1000 Pro plate reader (Tecan).
as §5

The test system of series [7] is mESC-D3. The arrangement: method as in Scholz et al. [1999]. To be noted: ZEBET value, 7 d result; ref Scholz et al. [1999]; cited from earlier work.
The nature of series [8]: Manual CellTiter-Glo luminescent cell viability assay (7 d or 5 d). The class given is cell-based, mouse. To be noted: mouse, in brackets the two individual experiments. How it is done: as §4, with “Seven days after seeding the assay plate was taken out of the incubator and located at room temperature for 10 min, before cell supernatant was aspirated (80 μl/well) and CellTiter-Glo® reagent was dispensed (50 μl/well).” left out
as §5

The mark [9] stands for this setting: HDFf (human dermal fibroblasts of fetal origin).

Molecules are shown by their SMILES. Converted amounts (≈) assume the structure as drawn.

Regarding `CC1(C)S[C@@H]2[C@H](NC(=O)Cc3ccccc3)C(=O)N2[C@H]1C(=O)O` [Penicillin G, penicillin G], the IC50 at 5 d was 822 µg/mL (≈ 2460 µM) in series [1] (setting [9]); 750 µg/mL (≈ 2240 µM) in [1] (hiPSC line ZIPi013-E); 795 µg/mL (≈ 2380 µM) in series [2] (setting [9]); above 1000 µg/mL in [2] (hiPSC line ZIPi013-E); above 1000 µg/mL in [6] (NIH/3T3 cells); above 1000 µg/mL in series [6] (mESC-D3 cells (mouse embryonic stem cells)). The IC50 at 5 d was 992 µg/mL (≈ 2970 µM) in [8] (NIH/3T3 cells, read-out: Cytotoxicity assay CTG, 5 d IC50 NIH/3T3) and above 1000 µg/mL in series [8] (mESC-D3 cells, read-out: Cytotoxicity assay CTG, 5 d IC50 mESC-D3). The IC50 at 7 d was above 1000 µg/mL in series [3] (NIH/3T3 cells, read-out: Cytotoxicity assay MTT, 7 d IC50 NIH/3T3); above 1000 µg/mL in series [3] (mESC-D3 cells, read-out: Cytotoxicity assay MTT, 7 d IC50 mESC-D3); above 1000 µg/mL in series [8] (NIH/3T3 cells, read-out: Cytotoxicity assay CTG, 7 d IC50 NIH/ 3T3); above 1000 µg/mL in series [8] (mESC-D3 cells, read-out: Cytotoxicity assay CTG, 7 d IC50 mESC-D3). For the same molecule, in the series with NIH/3T3, the “IC50 NIH/3T3 (ZEBET)” value was 1586 µg/mL (≈ 4740 µM). Besides, the “ID50 mESC-D3 (ZEBET)” value in the series on mESC-D3 [4] was 3450 µg/mL (≈ 10300 µM). Besides, the “Differentiation assay in hanging drop (petri dish) ID50 mESC-D3” value in the series on mESC-D3 [5] is given as 1000 (> 1000; > 1000) µg/ml. The “IC50 mESC-D3 (ZEBET)” value with mESC-D3 [7] is 2950 µg/mL (≈ 8820 µM).
